Assay results from ChEMBL document CHEMBL3832051, “DailyMed|setid=970a767a-7a65-4cdf-84fe-4dbe0a77b80a | METRONIDAZOLE - metronidazole lotion|Physicians Total Care, Inc”.

Experiment: Evaluation of pharmacokinetic parameters for metronidazole following topical administration of 7.5 mg of metronidazole (1 g metronidazole topical lotion) for 4 days to the faces of 8 patients.
Assay type: ADME, organism-based
Set-up: dose 7.5 mg, route topical
Details: human, in vivo, topical or ocular, dosed compound id 31, dosed compound name METRONIDAZOLE, gender male and female, regimen Twice daily, study dosing duration 4 days, tissue Plasma

- Cmax (sampling time1 5 days): 96 ng/mL
- AUC at 96 h (read-out: AUC(0-24)): 962 ng·h/mL
Compound: Cc1ncc([N+](=O)[O-])n1CCO [METRONIDAZOLE]
